Results reported in ChEMBL document CHEMBL3217491, “Design, synthesis and biological evaluation of imidazopyridine/pyrimidine-chalcone derivatives as potential anticancer agents” (2010).
Activity calls are given as the source filed them. No cut-off for these calls is given here.

Assays:
MCF7 [1] = test: Growth inhibition of human MCF7 cells assessed as cell viability at 4 uM after 24 hrs by MTT assay; assay type: functional, cell-based
T47D = test: Growth inhibition of human T47D cells after 48 hrs by SRB assay; assay type: functional
NCI-H23 = test: Growth inhibition of human NCI-H23 cells after 48 hrs by SRB assay; assay type: functional; conditions: NCI-H23, 48 h
TK-10 = test: Growth inhibition of human TK10 cells after 48 hrs by SRB assay; assay type: functional; conditions: TK-10, 48 h
[2] = Growth inhibition of human OVCAR5 cells after 48 hrs by SRB assay; assay type: functional; conditions: OVCAR-5, 48 h
SF-268 = test: Growth inhibition of human SF268 cells after 48 hrs by SRB assay; assay type: functional; conditions: SF-268, 48 h
PC-3 = test: Growth inhibition of human PC3 cells after 48 hrs by SRB assay; assay type: functional; conditions: PC-3, 48 h
CAKI-1 = test: Growth inhibition of human Caki1 cells after 48 hrs by SRB assay; assay type: functional; conditions: CAKI-1, 48 h
[3] = Growth inhibition of human HCT15 cells after 48 hrs by SRB assay; assay type: functional; conditions: HCT-15, 48 h
[4] = Growth inhibition of human SF539 cells after 48 hrs by SRB assay; assay type: functional; conditions: SF-539, 48 h
NCI-H460 = test: Growth inhibition of human NCI-H460 cells after 48 hrs by SRB assay; assay type: functional; conditions: NCI-H460, 48 h
SN12C = test: Growth inhibition of human SN12C cells after 48 hrs by SRB assay; assay type: functional
SNB-19 = test: Growth inhibition of human SNB19 cells after 48 hrs by SRB assay; assay type: functional; conditions: SNB-19, 48 h
IGROV-1 = test: Growth inhibition of human IGROV1 cells after 48 hrs by SRB assay; assay type: functional; conditions: IGROV-1, 48 h
HOP-62 = test: Growth inhibition of human HOP62 cells after 48 hrs by SRB assay; assay type: functional; conditions: HOP-62, 48 h
MDA-MB-468 = test: Growth inhibition of human MDA-MB-468 cells after 48 hrs by SRB assay; assay type: functional; conditions: MDA-MB-468, 48 h
[5] = Growth inhibition of human OVCAR4 cells after 48 hrs by SRB assay; assay type: functional; conditions: OVCAR-4, 48 h
A549 = test: Growth inhibition of human A549 cells after 48 hrs by SRB assay; assay type: functional; conditions: A549, 48 h
SNB-75 = test: Growth inhibition of human SNB75 cells after 48 hrs by SRB assay; assay type: functional; conditions: SNB-75, 48 h
HL-60(TB) = test: Growth inhibition of human HL-60(TB) cells after 48 hrs by SRB assay; assay type: functional; conditions: HL-60, 48 h
RPMI-8226 = test: Growth inhibition of human RPMI8226 cells after 48 hrs by SRB assay; assay type: functional; conditions: RPMI-8226, 48 h
COLO 205 = test: Growth inhibition of human COLO205 cells after 48 hrs by SRB assay; assay type: functional; conditions: COLO 205, 48 h
HCT-116 = test: Growth inhibition of human HCT116 cells after 48 hrs by SRB assay; assay type: functional; conditions: HCT-116, 48 h
SK-MEL-28 = test: Growth inhibition of human SK-MEL-28 cells after 48 hrs by SRB assay; assay type: functional; conditions: SK-MEL-28, 48 h
A498 = test: Growth inhibition of human A498 cells after 48 hrs by SRB assay; assay type: functional; conditions: A498, 48 h
DU-145 = test: Growth inhibition of human DU145 cells after 48 hrs by SRB assay; assay type: functional; conditions: DU-145, 48 h
[6] = Growth inhibition of human HCC2998 cells after 48 hrs by SRB assay; assay type: functional; conditions: HCC 2998, 48 h
K562 = test: Growth inhibition of human K562 cells after 48 hrs by SRB assay; assay type: functional; conditions: K562, 48 h
MCF7 [7] = test: Growth inhibition of human MCF7 cells after 48 hrs by SRB assay; assay type: functional; conditions: MCF7, 48 h
MDA-MB-435 = test: Growth inhibition of human MDA-MB-435 cells after 48 hrs by SRB assay; assay type: functional; conditions: MDA-MB-435, 48 h
Malme-3M = test: Growth inhibition of human MALME-3M cells after 48 hrs by SRB assay; assay type: functional
NCI-H322M = test: Growth inhibition of human NCI-H322M cells after 48 hrs by SRB assay; assay type: functional
SK-MEL-5 = test: Growth inhibition of human SK-MEL-5 cells after 48 hrs by SRB assay; assay type: functional; conditions: SK-MEL-5, 48 h
[8] = Growth inhibition of human SF295 cells after 48 hrs by SRB assay; assay type: functional; conditions: SF-295, 48 h
[9] = Growth inhibition of human BT549 cells after 48 hrs by SRB assay; assay type: functional; conditions: BT-549, 48 h
MDA-MB-231 = test: Growth inhibition of human MDA-MB-231 cells after 48 hrs by SRB assay; assay type: functional; conditions: MDA-MB-231, 48 h
[10] = Growth inhibition of human UACC257 cells after 48 hrs by SRB assay; assay type: functional; conditions: UACC-257, 48 h
[11] = Growth inhibition of human LOXIMVI cells after 48 hrs by SRB assay; assay type: functional; conditions: LOX IMVI
KM12 = test: Growth inhibition of human KM12 cells after 48 hrs by SRB assay; assay type: functional; conditions: KM12, 48 h
[12] = Growth inhibition of human OVCAR8 cells after 48 hrs by SRB assay; assay type: functional; conditions: OVCAR-8, 48 h
[13] = Growth inhibition of human MOLT4 cells after 48 hrs by SRB assay; assay type: functional; conditions: MOLT-4, 48 h
SK-OV-3 = test: Growth inhibition of human SKOV3 cells after 48 hrs by SRB assay; assay type: functional; conditions: SK-OV-3, 48 h
NCI-H226 = test: Growth inhibition of human NCI-H226 cells after 48 hrs by SRB assay; assay type: functional; conditions: NCI-H226, 48 h
[14] = Growth inhibition of human UACC62 cells after 48 hrs by SRB assay; assay type: functional; conditions: UACC-62, 48 h
NCI-H522 = test: Growth inhibition of human NCI-H522 cells after 48 hrs by SRB assay; assay type: functional; conditions: NCI-H522, 48 h
SW-620 = test: Growth inhibition of human SW620 cells after 48 hrs by SRB assay; assay type: functional; conditions: SW-620, 48 h
[15] = Growth inhibition of human OVCAR3 cells after 48 hrs by SRB assay; assay type: functional; conditions: OVCAR-3, 48 h
[16] = Growth inhibition of human NCI-ADR-RES cells after 48 hrs by SRB assay; assay type: functional
M14 = test: Growth inhibition of human M14 cells after 48 hrs by SRB assay; assay type: functional; conditions: M14, 48 h
786-0 = test: Growth inhibition of human 786-0 cells after 48 hrs by SRB assay; assay type: functional; conditions: 786-0, 48 h
ACHN = test: Growth inhibition of human ACHN cells after 48 hrs by SRB assay; assay type: functional
[17] = Growth inhibition of human UO31 cells after 48 hrs by SRB assay; assay type: functional; conditions: UO-31, 48 h
SK-MEL-2 = test: Growth inhibition of human SK-MEL-2 cells after 48 hrs by SRB assay; assay type: functional; conditions: SK-MEL-2, 48 h
CCRF-CEM = test: Growth inhibition of human CCRF-CEM cells after 48 hrs by SRB assay; assay type: functional
HT-29 = test: Growth inhibition of human HT-29 cells after 48 hrs by SRB assay; assay type: functional; conditions: HT-29, 48 h
U-251 = test: Growth inhibition of human U251 cells after 48 hrs by SRB assay; assay type: functional; conditions: U-251, 48 h
[18] = Growth inhibition of human EKVX cells after 48 hrs by SRB assay; assay type: functional
SR = test: Growth inhibition of human SR cells after 48 hrs by SRB assay; assay type: functional
[19] = Growth inhibition of human Hs578T cells after 48 hrs by SRB assay; assay type: functional; conditions: Hs-578T

COc1ccc(/C=C/C(=O)c2cc(OC)c(OC)c(OC)c2)cc1O
inhibition (MCF7 [1]): Active

COc1ccc(-c2nc3ccccn3c2/C=C/C(=O)c2cc(OC)c(OC)c(OC)c2)cc1OC
GI50 (T47D): 3010 nM | GI50 (NCI-H23): 3780 nM | GI50 (TK-10): 3280 nM | GI50 [2]: 7380 nM | GI50 (SF-268): 3580 nM | GI50 (PC-3): 3710 nM | GI50 (CAKI-1): 1390 nM | GI50 [3]: 3730 nM | GI50 [4]: 2710 nM | GI50 (NCI-H460): 2990 nM | GI50 (SN12C): 4100 nM | GI50 (SNB-19): 4910 nM | GI50 (IGROV-1): 3030 nM | GI50 (HOP-62): 4420 nM | GI50 (MDA-MB-468): 2280 nM | GI50 [5]: 2430 nM | GI50 (A549): 3860 nM | GI50 (SNB-75): 3920 nM | GI50 (HL-60(TB)): 2530 nM | GI50 (RPMI-8226): 390 nM | GI50 (COLO 205): 3920 nM | GI50 (HCT-116): 2620 nM | GI50 (SK-MEL-28): 3300 nM | GI50 (A498): 2930 nM | GI50 (DU-145): 2630 nM | GI50 [6]: 3800 nM | GI50 (K562): 2990 nM | GI50 (MCF7 [7]): 2760 nM | GI50 (MDA-MB-435): 1780 nM | GI50 (Malme-3M): 2360 nM | GI50 (NCI-H322M): 2080 nM | GI50 (SK-MEL-5): 1500 nM | GI50 [8]: 1850 nM | GI50 [9]: 890 nM | GI50 (MDA-MB-231): 3280 nM | GI50 [10]: 3240 nM | GI50 [11]: 2260 nM | GI50 (KM12): 2520 nM | GI50 [12]: 2830 nM | GI50 [13]: 2180 nM | GI50 (SK-OV-3): 4920 nM | GI50 (NCI-H226): 6100 nM | GI50 [14]: 4860 nM | GI50 (NCI-H522): 2740 nM | GI50 (SW-620): 2780 nM | GI50 [15]: 2470 nM | GI50 [16]: 2180 nM | GI50 (M14): 4480 nM | GI50 (786-0): 3740 nM | GI50 (ACHN): 3220 nM | GI50 [17]: 550 nM | GI50 (SK-MEL-2): 2370 nM | GI50 (CCRF-CEM): 1540 nM | GI50 (HT-29): 3200 nM | GI50 (U-251): 2910 nM | GI50 [18]: 1710 nM | GI50 (SR): 1900 nM | GI50 [19]: 1850 nM
